In data set [1] the test system is RD cells. The data set is described as follows: Cytotoxicity by CCK-8 in RD cells. The class given is cell-based. Particulars: RD cells; for Cell viability (%): 24 h; for cytotoxicity, result in words: CCK-8, 24 h. As for the experimental part:
(§1) The experiment was performed as follows. • (1) RD cells were plated in a 96-well plate at 100 μl per well. • (2) After the cells reached 70%-80% confluence, the MEM medium containing 10% serum was replaced with a MEM medium containing 2% serum. Then, polypeptide P2 was added to generate gradient concentrations of 0.01 μM, 0.1 μM, 1 μM, 10 μM, and 100 μM (final concentration), respectively. • (3) The test was performed 24 hours after the addition of the polypeptide, and 10 μl of viable cell detection reagent CCK-8 was added to each well and mixed well. • (4) The plate was incubated at 37° C. for 2 h. • (5) The absorbance value at OD450 was measured with a microplate reader.
as §1, with “P1” for “P2”, “concentrations),” for “concentration),”
(§2) RD cells were used to test the antiviral effect of polypeptide P1. When RD cells reached 80% confluence, polypeptide P1 was added at concentrations of 0 μM (control group), 0.01 μM, 0.1 μM, 1 μM, 10 μM, and 100 μM, respectively. Three parallel wells were used for each concentration. The test was carried out 24 hours later, and the cell viability was detected using the CCK-8 kit.
as §1, with “3A-TAT-EP” for “P2”, “concentrations),” for “concentration),”
(§3) RD cells were used to test the antiviral effect of polypeptide 3A-TAT-EP. When RD cells reached 80% confluence, polypeptide 3A-TAT-EP was added at concentrations of 0 μM (control group), 0.01 μM, 0.1 μM, 1 μM, 10 μM, and 100 μM, respectively. Three parallel wells were used for each concentration. The test was carried out 24 hours later, and the cell viability was detected using the CCK-8 kit.
as §1, with “Then, 3A-EP-DRI or 3A-EP-PEG4-PA” for “Then, polypeptide P2”, “and 50” for “and 100”, “(final concentrations),” for “(final concentration),”
(§4) RD cells were used to test the antiviral effect of polypeptides 3A-EP-DRI and 3A-EP-PEG4-PA. When RD cells reached 80% confluence, polypeptide 3A-EP-DRI or 3A-EP-PEG4-PA was added at concentrations of 0 μM (control group), 0.01 μM, 0.1 μM, 1 μM, 10 μM, and 50 μM, respectively. Three parallel wells were used for each concentration. The test was carried out 24 hours later, and the cell viability was detected using the CCK-8 kit. […]

Data set [2] can be described thus: Cytotoxicity by CCK-8 in RD cells. It is filed as cell-based. Particulars: human. As for the experimental part: as §1
as §1, with “P1” for “P2”, “concentrations),” for “concentration),”
as §2
as §1, with “3A-TAT-EP” for “P2”, “concentrations),” for “concentration),”
as §3
as §1, with “Then, 3A-EP-DRI or 3A-EP-PEG4-PA” for “Then, polypeptide P2”, “and 50” for “and 100”, “(final concentrations),” for “(final concentration),”
as §4

[3] abbreviates: RD cells, 24 h, read-out: Cell viability (%).
Where [4] appears, read: RD cells, CCK-8, 24 h, Example 15, read-out: 50% cytotoxic concentration (CC50).
Setting [5] is: Table 1 summary, cell line not given, read-out: CC50.

Values joined by “and” are separate entries in the source; they are usually repeats but may differ in a detail not shown here. Identical values can stand only once. Like-named read-outs stand apart in the source and are kept apart here. Non-standard residues stand in square brackets, D forms with d. Residues, ends and D or L forms follow the SMILES beside them. No end group written: not given here. A value given as a limit tells only on which side of the number the result lay.

For `CC(=O)N[C@H](CCCNC(=N)N)C(=O)N[C@H](CS)C(=O)N[C@H](Cc1ccc(O)cc1)C(=O)N[C@H](CCC(N)=O)C(=O)N[C@H](CCCNC(=N)N)C(=O)N[C@@H](C(=O)N[C@H](CCC(=O)O)C(=O)N[C@H](CCC(=O)O)C(=O)N1CCC[C@@H]1C(=O)N1CCC[C@@H]1C(=O)N[C@H](CCCNC(=N)N)C(=O)N[C@H](CCCNC(=N)N)C(=O)N[C@H](CCCNC(=N)N)C(=O)N[C@H](CCC(N)=O)C(=O)N[C@H](CCCNC(=N)N)C(=O)N[C@H](CCCNC(=N)N)C(=O)N[C@H](CCCCN)C(=O)N[C@H](CCCCN)C(=O)N[C@H](CCCNC(=N)N)C(=O)NCC(=O)N[C@H](Cc1ccc(O)cc1)C(N)=O)C(C)C` [ER-DRI] (Ac-[dR][dC][dY][dQ][dR][dV][dE][dE][dP][dP][dR][dR][dR][dQ][dR][dR][dK][dK][dR]G[dY]-NH2), the “Cell viability (%)” value in data set [1] (0.46875 μM) was 100.2% and 99.28%. In data set [1] (2.34375 μM), the “Cell viability (%)” value is 98.83% and 96.33%. Further, the “Cell viability (%)” value in data set [1] (4.6875 μM) was 98.51% and 97.63%. Besides, the “Cell viability (%)” value in data set [1] (9.375 μM) is 96.79% and 94.15%. Also, the “Cell viability (%)” value in data set [1] (18.75 μM) is 91.14% and 89.01%. In data set [1] (37.5 μM), the “Cell viability (%)” value is 86.77% and 86.97%. In data set [1] (75 μM), the “Cell viability (%)” value was 70.42% and 71.95%. For the same compound, in data set [1] (150 μM), the “Cell viability (%)” value is 34.62% and 34.08%. Besides, the “Cell viability (%)” value in data set [1] (300 μM) was 17.58% and 18.69%. Further, in data set [1], the “cytotoxicity, result in words” value is recorded as “very low toxicity”. Also, in data set [2] (setting [3]), the viability at 24 h, 0.46875 µM amounted to 103%; the viability at 24 h, 2.34375 µM came out at 104%; the viability at 24 h, 4.6875 µM came to 101%; the viability at 24 h, 9.375 µM stood at 96%. Moreover, in data set [2] (setting [3]), the viability at 24 h, 18.75 µM stood at 95.8%; the viability at 24 h, 37.5 µM was found to be 86%; the viability at 24 h, 75 µM worked out at 68.9%; the viability at 24 h, 150 µM was 34%. Also, the viability at 24 h, 300 µM in data set [2] (setting [3]) is 18.2%. In addition, the CC50 at 24 h in data set [2] (setting [4]) amounted to 117 µM.
Consider `CCCCCCCCCCCCCCCC(=O)NCCCC[C@H](NC(=O)CCOCCOCCOCCOCCNC(=O)[C@H](CCCCN)NC(=O)[C@H](C)NC(=O)[C@@H]1CCCN1C(=O)[C@@H](NC(=O)[C@@H](NC(=O)[C@H](Cc1c[nH]c2ccccc12)NC(=O)CNC(=O)[C@H](CCC(N)=O)NC(=O)[C@H](CCC(=O)O)NC(=O)[C@H](CCCNC(=N)N)NC(=O)[C@H](CS)NC(=O)[C@H](Cc1ccc(O)cc1)NC(=O)[C@H](CCC(N)=O)NC(=O)[C@H](CCCNC(=N)N)NC(=O)[C@@H](NC(=O)[C@H](CCC(=O)O)NC(=O)[C@@H](N)CCC(=O)O)C(C)C)[C@@H](C)CC)[C@@H](C)CC)C(=O)O` [3A-EP-PEG4-PA], for which the “cytotoxicity, result in words” value in data set [1] is “not toxic to cells within 50 μM”. In addition, in data set [2] (RD cells, 0.01 μM polypeptide, 24 h, untreated = 100%, read-out: Cell viability (%)), the viability at 24 h, 0.01 µM came to 107%. Also, the viability at 24 h, 0.1 µM in data set [2] (RD cells, 0.1 μM polypeptide, 24 h, untreated = 100%, read-out: Cell viability (%)) was 94.9%. Moreover, in data set [2] (RD cells, 1 μM polypeptide, 24 h, untreated = 100%, read-out: Cell viability (%)), the viability at 24 h, 1 µM is 89.9%. In data set [2] (RD cells, 10 μM polypeptide, 24 h, untreated = 100%, read-out: Cell viability (%)), the viability at 24 h, 10 µM was 95.3%. The viability at 24 h, 20 µM in data set [2] (RD cells, 20 μM polypeptide, 24 h (Table 6), read-out: Cell viability (%)) worked out at 98.4%. The viability at 24 h, 30 µM in data set [2] (RD cells, 30 μM polypeptide, 24 h (Table 6), read-out: Cell viability (%)) was 99.5%. In data set [2] (RD cells, 40 μM polypeptide, 24 h (Table 6), read-out: Cell viability (%)), the viability at 24 h, 40 µM came to 99.3%. Besides, the viability at 24 h, 50 µM in data set [2] (RD cells, 50 μM polypeptide, 24 h (Table 6), read-out: Cell viability (%)) amounted to 94.8%. Moreover, in data set [2] (setting [5]), the CC50 at 24 h is more than 100 µM.
In the case of YGRKKRRQRRRGSGEEVRQYCR [ER], the “Cell viability (%)” value is 99.34% and 100% in data set [1] (0.46875 μM); 98.07% and 102.7% in data set [1] (2.34375 μM); 100.8% and 103.1% in data set [1] (4.6875 μM); 98.48% and 102.4% in data set [1] (9.375 μM); 96.59% and 98.47% in data set [1] (18.75 μM); 95.69% and 92.24% in data set [1] (37.5 μM). Besides, the “Cell viability (%)” value in data set [1] (75 μM) is 89.79% and 90.36%; in data set [1] (150 μM) it was 74.32% and 76.72%; in data set [1] (300 μM) it was 43.39% and 48.41%. Moreover, the “cytotoxicity, result in words” value in data set [1] is reported as “very low toxicity”. Also, in data set [2] (setting [3]), the viability at 24 h, 0.46875 µM amounted to 99.9%. In data set [2] (setting [3]), the viability at 24 h, 2.34375 µM was 98.6%. Also, in data set [2] (setting [3]), the viability at 24 h, 4.6875 µM worked out at 99.1%. Besides, in data set [2] (setting [3]), the viability at 24 h, 9.375 µM stood at 98.5%. Besides, the viability at 24 h, 18.75 µM in data set [2] (setting [3]) came to 99%. The viability at 24 h, 37.5 µM in data set [2] (setting [3]) stood at 94.8%. Further, the viability at 24 h, 75 µM in data set [2] (setting [3]) stood at 89.7%. Further, the viability at 24 h, 150 µM in data set [2] (setting [3]) was 72.9%. In addition, the viability at 24 h, 300 µM in data set [2] (setting [3]) is 42.2%. The CC50 at 24 h in data set [2] (setting [4]) worked out at 290 µM.
On to YGRKKRRQRRRGSGEAVREYCK [BP8], for which the “Cell viability (%)” value in data set [1] (3.0625 μM, CCK-8 4 h (Example 18)) was 103.1369% and 104.4%; in data set [1] (6.125 μM, CCK-8 4 h (Example 18)), 103.5158%; in data set [1] (12.5 μM, CCK-8 4 h (Example 18)), 99.35% and 104.8421%; in data set [1] (25 μM, CCK-8 4 h (Example 18)), 97.26% and 99.85%; in data set [1] (50 μM, CCK-8 4 h (Example 18)) it was 94.17% and 97.64%; in data set [1] (100 μM, CCK-8 4 h (Example 18)) it was 93.6% and 96.25%. For the same compound, in data set [1] (200 μM, CCK-8 4 h (Example 18)), the “Cell viability (%)” value stood at 92.08%. Moreover, the “cytotoxicity, result in words” value in data set [1] was “not toxic to cells within 200 μM”. In addition, in data set [2] (RD cells, 3.0625 μM, 24 h, CCK-8 4 h (Example 18), read-out: Cell viability (%)), the viability at 24 h, 3.0625 µM amounted to 102%. In addition, the viability at 24 h, 6.125 µM in data set [2] (RD cells, 6.125 μM, 24 h, CCK-8 4 h (Example 18), read-out: Cell viability (%)) came to 101%. In data set [2] (RD cells, 12.5 μM, 24 h, CCK-8 4 h (Example 18), read-out: Cell viability (%)), the viability at 24 h, 12.5 µM came out at 94.9%. Besides, the viability at 24 h, 25 µM in data set [2] (RD cells, 25 μM, 24 h, CCK-8 4 h (Example 18), read-out: Cell viability (%)) is 93.4%. In addition, in data set [2] (RD cells, 50 μM, 24 h, CCK-8 4 h (Example 18), read-out: Cell viability (%)), the viability at 24 h, 50 µM was determined as 95.2%. In addition, the viability at 24 h, 100 µM in data set [2] (RD cells, 100 μM, 24 h, CCK-8 4 h (Example 18), read-out: Cell viability (%)) amounted to 93.1%. In data set [2] (RD cells, 200 μM, 24 h, CCK-8 4 h (Example 18), read-out: Cell viability (%)), the viability at 24 h, 200 µM was determined as 88.9%. Further, the CC50 at 24 h in data set [2] (setting [5]) was more than 200 µM.

The record behind these values is patent US11999806B2, “Broad-spectrum polypeptide against enterovirus and application thereof” (WUHAN INSTITUTE OF VIROLOGY, CHINESE ACADEMY OF SCIENCES, priority 2018, dated 2024).
